Assay results as given in the supplement of paper PMC6045584.
± gives the standard deviation of the averaged measurements.

Legend:
[1] = compound: CCc1cc(Nc2nccc(-c3c(-c4ccc(OC)c(C(=O)Nc5c(F)cccc5F)c4)nc4ccccn34)n2)c(OC)cc1N1CCC(N2CCN(S(C)(=O)=O)CC2)CC1; assay: surviving fraction relative to DMSO-only wells; higher = less growth inhibition; conditions: exposure time: 5 days
Summary of the method: (§1)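 Inhibitors at 0.5, 1, 5, 10, 50, 100, 500 and 1000 nM were applied continuously for five days to tumour cell lines seeded in log phase at 250–500 cells per well in 384-well plates 24 hours earlier. Viability was measured by CellTiter-Glo luminescence and expressed as surviving fraction relative to the median of DMSO-only wells. Luminescence was taken after 10 minutes at room temperature.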

[2] = compound: C[C@H](CN(C)C)Oc1nc(Nc2cc3cccc(Cl)c3cn2)cnc1C#N; assay: as above; conditions: exposure time: 5 days
Summary of the method: as §1

Test System	surviving fraction ([1]; 0.5 nM)	surviving fraction ([1]; 1 nM)	surviving fraction ([1]; 5 nM)	surviving fraction ([1]; 10 nM)	surviving fraction ([1]; 50 nM)	surviving fraction ([1]; 100 nM)	surviving fraction ([1]; 500 nM)	surviving fraction ([1]; 1000 nM)	surviving fraction ([2]; 0.5 nM)	surviving fraction ([2]; 1 nM)	surviving fraction ([2]; 5 nM)	surviving fraction ([2]; 10 nM)	surviving fraction ([2]; 50 nM)	surviving fraction ([2]; 100 nM)	surviving fraction ([2]; 500 nM)	surviving fraction ([2]; 1000 nM)
NY BONE	0.969 ± 0.012	0.982 ± 0.027	1.023 ± 0.0066	1.09 ± 0.014	1.03 ± 0.039	1.04 ± 0.023	0.993 ± 0.025	0.977 ± 0.024	0.9707 ± 0.0081	0.948 ± 0.042	1.01 ± 0.026	1.01 ± 0.015	1 ± 0.029	0.854 ± 0.06	0.119 ± 0.0045	0.0907 ± 0.0051
OS25HAL BONE	0.997 ± 0.011	1.02 ± 0.011	1.032 ± 0.01	1.04 ± 0.037	1.02 ± 0.015	1.04 ± 0.018	0.948 ± 0.055	0.944 ± 0.05	0.972 ± 0.013	0.965 ± 0.034	1.049 ± 0.0085	0.979 ± 0.024	1.07 ± 0.057	1.09 ± 0.014	0.615 ± 0.082	0.217 ± 0.023
OSHN BONE	1.02 ± 0.018	1.04 ± 0.036	1.03 ± 0.038	1.06 ± 0.034	1.02 ± 0.033	1.05 ± 0.04	1.01 ± 0.023	1.04 ± 0.048	1.06 ± 0.015	1.08 ± 0.025	1.07 ± 0.015	1.068 ± 0.0038	1.13 ± 0.029	1.1 ± 0.019	0.709 ± 0.1	0.11 ± 0.019
PCI30 HEADNECK	0.889 ± 0.028	0.961 ± 0.15	1 ± 0.064	1.04 ± 0.045	0.947 ± 0.054	1.07 ± 0.032	0.989 ± 0.065	0.979 ± 0.065	0.99 ± 0.044	0.999 ± 0.019	1.06 ± 0.059	1.06 ± 0.11	0.9137 ± 0.0042	0.827 ± 0.079	0.337 ± 0.021	0.322 ± 0.017
RDES SOFT TISSUE	1.25 ± 0.081	1.13 ± 0.14	1.19 ± 0.15	1.2 ± 0.043	0.998 ± 0.2	1.09 ± 0.043	0.924 ± 0.1	1.25 ± 0.21	1.28 ± 0.031	1.37 ± 0.031	1.3 ± 0.14	1.2 ± 0.12	1.17 ± 0.086	1.32 ± 0.041	1.33 ± 0.1	1.38 ± 0.13
S68 BREAST	0.916 ± 0.045	1.22 ± 0.11	1.29 ± 0.2	1.06 ± 0.18	1.1 ± 0.26	1.06 ± 0.27	0.688 ± 0.022	0.737 ± 0.089	0.922 ± 0.12	1.07 ± 0.076	1.15 ± 0.062	0.966 ± 0.065	0.874 ± 0.14	0.652 ± 0.052	0.153 ± 0.0038	0.114 ± 0.0055
SAOS2 BONE	1.1 ± 0.024	1.04 ± 0.025	1.11 ± 0.035	1.144 ± 0.0087	1.09 ± 0.016	1.19 ± 0.025	1.16 ± 0.045	1.11 ± 0.018	1.18 ± 0.055	1.19 ± 0.047	1.17 ± 0.058	1.137 ± 0.01	1.39 ± 0.1	1.32 ± 0.068	1.08 ± 0.12	0.944 ± 0.042
SCC003 HEADNECK	0.958 ± 0.069	1.13 ± 0.031	0.966 ± 0.024	1.1 ± 0.12	1.03 ± 0.14	1.1 ± 0.19	1.03 ± 0.019	1.08 ± 0.085	1.04 ± 0.09	1.06 ± 0.022	1.06 ± 0.055	1.05 ± 0.054	1.05 ± 0.079	1.1 ± 0.018	0.848 ± 0.011	0.97 ± 0.12
